Measurements reported in patent publication US20150250824A1, “METHODS AND COMPOSITIONS FOR EXPANSION OF STEM CELLS AND OTHER CELLS” (The Research Foundation For The State University Of New York, priority 2014, published 2015).
Entries after “also recorded” stand apart in the source; their conditions may differ. Read-outs that look alike come from different tables or passages of the source.

How the values were obtained:
bone marrow CD34+ cells = tested on: bone marrow CD34+ cells
Experimental: 616452 (also called RepSox), was purchased separately from Biovision and Millipore. […] A fresh aliquot of the chemical was used at every media change and the final concentration in media is 10 μM.
(§1) Cells were centrifuged for 5 minutes at 200 G at 4° C. Cells were resuspended with CD34, 38 and/or 41 conjugated antibodies for 30 minutes on ice. Cells were then washed with 2 ml of PBS and centrifuged for 5 minutes at 200 G at 4° C. The final pellet was resuspended using 300 μl of 2% formalin.
Flow cytometry study was used to analyze the immunophenotype of cultured cells. As mature, large megakaryocytes may not be detectable by flow cytometry, bone marrow CD34+ cells were cultured for 4 days in order to detect younger, small megakaryocytes. […] However, flow analysis of megakaryocytes is known to be misleading due to the sheer size of the megakaryocytes, which can have a diameter ranging from 20 um to 120 um.

[1] = tested on: CD34+ cells isolated from human umbilical CB; format: cell-based
Experimental: Megakaryocytes derived from CB in vitro are usually smaller than megakaryocytes derived from bone marrow or mobilized peripheral blood from adults. Small megakaryocyte size may contribute to delayed platelet engraftment when cord blood is used for bone marrow transplantation. To test whether 616452 is able to increase fetal/neonatal megakaryocyte size and ploidy, CD34+ cells isolated from human umbilical CB were cultured in StemSpan SFEM containing SCF, TPO and Flt-3 Ligand. CB CD34+ cells in the presence of TPO after 4 or 8 day culture, were morphologically consistent of a relative homogenous population of small cells (FIG. 19A) and megakaryocytic features such as large nuclear size and cytoplasmic mass were hardly detectable.
One of the unique characteristics of megakaryocytes is the ploidy development of their nuclei, which can be easily measured using propidium iodide (PI), a fluorescent intercalating agent that binds to nucleic acids. Megakaryocyte (Mk) ploidy correlates well with their maturation and platelet production. […] Out of 10,000 events, the control cells only elicited only 1 cell with a ploidy of 16N and nothing thereon greater (FIG. 20A).

C57BL/6J mice given 5-FU = tested on: C57BL/6J mice given 5-FU
Experimental: FIG. 25. […] Fifteen 8-week old mice were given IP injections of 5-FU (250 mg/kg) on day 0. Complete blood counts (CBCs) were done on day 2, 4, 6, 9, and 12. 616452 (10 mg/kg) was introduced via IP injections on day 5, 7 and 9. The above data is a representative sample of the overall experiment. Data values from day 4 are not included.
The inventors used C57BL/6J mice to administrate with SFU, a chemotherapy agent (150 mg/kg, intraperitoneal injection). Peripheral blood (100 ul each) from injected mice is collected for assessment of the peripheral blood count using a hematology analyzer.
616452 was introduced to eight of the mice at this point and was injected every other day for a total of three doses.

[2] = tested on: CD41+ cells sorted from cultured CB CD34+ cells
Experimental: FIG. 22. […] CB CD34+ cells were cultured with TPO, SCF, IL-3 for 7 days prior for CD41 selection by flow cytometry.
Cells were isolated for nestin (NSCs) and FLK-1 (hemangioblasts) before further differentiation. For cell sorting, cells were centrifuged for 5 minutes at 200 G at 4° C. and resuspended with 25 μl of CD41-FITC antibody for 30 minutes on ice. Cells are then washed gently with PBS and centrifuged for 5 minutes at 200 G at 4° C. Cells are then suspended at a concentration of 10^6 cells/ml of PBS containing 2% FBS. Cells are sorted via FACS Aria.
To test this issue and the extent of megakaryocytic population in response to the chemical induction, we cultured HUBC CD34^+ cells for 12-14 days in a media specific to megakaryocyte expansion (Nikougoftar Zarif, M., et al., Cell journal 13:173-178 (2011)). The cells were labeled with a conjugated CD41 antibody and sorted by flow cytometry sorting.

[3] = tested on: CD34+ cells isolated from peripheral blood of G-CSF-mobilized donors; assay: Ex vivo culture of mobilized peripheral blood CD34+ cells with compounds, CD34/CD38 flow cytometry; format: cell-based, human; conditions: minimal cytokines
Experimental: CD34+ cells were isolated from cord blood or from peripheral blood of G-CSF-mobilized adult donors and cultured as follows. Mononuclear cells (MNCs) were isolated using a simple red blood cell lysis (15 minutes at room temperature using BD PharmLyse) or using Ficoll-Paque density gradient centrifugation (Jaatinen and Laine, Current Protocols Stem Cell Biol. 1:2A.1.1-2A.1.4. (2007)). The cells were then incubated with MACS CD34+ Microbead kit (Miltenyi Biotec, Auburn, Calif.) and run through a magnetic column resulting in selection for CD34+ cells. […] Human cortex neural stem cell (hcx NSC) cells were purchased from Millipore.
CD34+ cells were cultured in […] medium ([…] Technologies, Vancouver, BC, Canada) supplemented with 10% FBS, 100 ng/ml hSCF (human stem cell factor), 100 ng/ml hTPO (human thrombopoietin), 100 ng/ml hFLT-3 ligand (Human Fms-related Tyrosine Kinase 3) (Peprotech, Rocky Hill, N.J., USA) and 100 U/ml penicillin/streptomycin (Gibco). Human cortex Neural Progenitor Cell line (hcx NSC) was maintained in ReNcell medium: ReNcell NSC Maintenance medium (Millipore) supplemented with 20 ng/ml human EGF, 20 ng/ml human bFGF (Peprotech) and 100 U/ml penicillin/streptomycin. For expansion of cells targeted for cell sorting, we used the same media containing a different cytokine cocktail of 100 ng/ml SCF, TPO and 10 ng/ml IL-3.
as §1
CD34+ cells isolated from peripheral blood of G-CSF-mobilized donors were cultured for 11 days with minimal cytokines and the 4 chemical cocktail (C6FZ). […] The population bearing CD34+/CD38− is associated with long-term repopulating HSCs.
CD34+ cells isolated from the peripheral blood of G-CSF-mobilized donors were next cultured for 11 days with minimal cytokines and the individual compounds, C, 6, F and Z (FIG. 13).

CD41− cells = conditions: same conditions as CD41+ cells
Experimental: CD41− cells were also cultured under the same conditions with the control being induced using TPO and DMSO.

CB CD34+ cells = tested on: CB CD34+ cells
Experimental: FIG. 24. […] On the right is a heat map illustrating the values of expression in terms of fold increase over controls. Green is indicative of up-regulation while red is down-regulation.
Cells were analyzed via Qiagen's PAHS-054Z hematopoiesis array containing 81 genes.

[4] = Giemsa-Wright staining (FIG. 19B)
[5] = greater dose vs 10 μM standard (FIG. 20B)

SMILES: Cc1cccc(-c2n[nH]cc2-c2ccc3ncccc3n2)n1 [compound 616452, 2-[3-(6-methyl-2-pyridinyl)-1H-pyrazol-4-yl]-1,5-naphthyridine]
- fold increase of CD34+CD41+ cells (bone marrow CD34+ cells; 4 days culture, flow cytometry): 2 fold
- average cell size (bone marrow CD34+ cells; [4]): around 50 um
- cell size, largest (bone marrow CD34+ cells; [4]): ≤ 90 μm
- percentage of CD41 increased (bone marrow CD34+ cells; after 5 days of culture, 10 μM, N>3 experiments): 50-100%
- increase in the CD41+ population (bone marrow CD34+ cells; within 4 days of culture, flow cytometry): ~100%
- cluster formation at high concentrations [1]: no clusters in 4× concentrations or higher
- culture composition by 8 days [1]: predominately composed of megakaryocytes
- change in number of 8N, 16N and 32N cells between 8 and 12 days of induction ([1]; 10 μM): nearly doubled
- days of culture until appearance of large megakaryocyte-like cells ([1]; 10 μM): 4 days
- growth of the cells relative to control ([1]; 10 μM (1×)): 25-50%
- megakaryocytic features (large nuclear size, cytoplasmic mass) ([1]; 4 or 8 day culture with TPO): megakaryocytes with these features were easily observed
- increase of CD41 expression compared to control ([1]; 4 days induction, flow cytometry): 27%
- number of cells with greater ploidy ([1]; 8 days induction): drastically increased number of cells with greater ploidy
- cells of 16N ploidy out of 10,000 events ([1]; 8 days induction, PI staining): over 100 cells
- CD34+CD41+ population ([1]; flow analysis (FIG. 19C)): an increase in the CD34^+ CD41^+ population
- increase of the CD41+ population ([1]; flow analysis, 5 days induction (FIG. 19C)): 25-40%
- fold increase over the standard in 8N cells [1, 5]: 1.68 fold
- fold increase over the standard in 16N cells [1, 5]: 2.5 fold
- fold increase over the standard in 32N cells [1, 5]: 6 fold
- cell death ([1]; human, 48 h, 100 μM): all the cells died within 48 hours
- fold increase of 4N cells over control ([1]; time dependence study): 5 fold
- fold increase of 8N cells over control ([1]; time dependence study): 30 fold
- fold increase of 16N cells over control ([1]; time dependence study): 80 fold
- platelet counts by day 12 (C57BL/6J mice given 5-FU; 10 mg/kg every other day, three doses, after 5-FU): almost twice as many platelets as normal mice
- white blood cell count (C57BL/6J mice given 5-FU; chemotherapy treated mice): significant improvement or recovery of the white blood cell count
- platelet counts in mice not given 5-FU (C57BL/6J mice given 5-FU; mouse, in vivo): little to no change
- time until cells began to increase their size [2]: ≤ 2 days
- cells of 8N out of 10,000 events ([2]; 8 days of induction): 2018 cells
- cells of 16N out of 10,000 events ([2]; 8 days of induction): 585 cells
- cells of 32N or greater out of 10,000 events ([2]; 8 days of induction): 86 cells
- fold increase in 8N ([2]; 8 days, vs DMSO control): 30 fold
- fold increase in the number of 4N ([2]; 8 days, vs DMSO control): 4.5 fold
- cells positive in CD41 live cell stain ([2]; after 8 days of induction): 95%
- cluster size ([2]; around day 4): 5-15 cells
- cluster size ([2]; by day 6): 25-50 cells
- cells appearing large in size by eye ([2]; day 6): approximately 80%
- highest ploidy reached ([2]; within 8 days of culture): ≤ 64N
- expansion of CD34+ cells ([3]; 5 days, 10 μM): rapidly expanded the CD34+ cells
- effect on CD34+CD38+ and CD34+CD38− populations ([3]; 11 days, C, 6, F at 10 μM, Z at 100 nM, listed as 6): best effect enhancing both CD34+CD38- and CD34+ and CD38+ positive cells; also recorded: ability to enhance both the population of single positive (CD34+CD38−) and double positive (CD34+CD38+) cells; also recorded: the most effects on the CD34+CD38− population
- ploidy development (CD41− cells): slight increase in ploidy
- PF4 expression on day 4 compared to that on day 2 (CB CD34+ cells): more than 11 fold
- genes down-regulated (CB CD34+ cells; day 2 of induction): one
- genes down-regulated (CB CD34+ cells; day 4 of induction): four
